Experimental data: US20260055117A1, “SUBSTITUTED PYRIDONE GPR84 ANTAGONISTS AND USES THEREOF” (Liminal BioSciences Limited, priority 2022, published 2026)

Biological target: T1, human GPR84 receptor (Homo sapiens, UniProt Q9NQS5)
T1 construct: host or cells: HEK293, transiently transfected
Experiment: Gαi biosensor BRET assay (GPR84 antagonism vs agonist ZQ-16)
Assay type: cell-based
Conditions: HEK293 cells, 200 nmol/L agonist ZQ-16; for IC50: Gαi biosensor BRET assay; for inhibition at 10 µM: tested at 10 μM (concentration code D); for inhibition at 2 µM: tested at 2 μM (concentration code A)
In short: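 HEK293 cells transiently expressing GPR84, Gαi2-Rluc8, GFP10-Gγ2 and Gβ1 were pre-incubated with compounds 5 min at 37 °C in Tyrode's buffer pH 7.5, then stimulated with 200 nmol/L ZQ-16 for 5 min at room temperature. BRET2 (acceptor/donor ratio) read after 5 μmol/L coelenterazine 400A, background- and vehicle-corrected.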

T1 sequence (Q9NQS5 whole entry): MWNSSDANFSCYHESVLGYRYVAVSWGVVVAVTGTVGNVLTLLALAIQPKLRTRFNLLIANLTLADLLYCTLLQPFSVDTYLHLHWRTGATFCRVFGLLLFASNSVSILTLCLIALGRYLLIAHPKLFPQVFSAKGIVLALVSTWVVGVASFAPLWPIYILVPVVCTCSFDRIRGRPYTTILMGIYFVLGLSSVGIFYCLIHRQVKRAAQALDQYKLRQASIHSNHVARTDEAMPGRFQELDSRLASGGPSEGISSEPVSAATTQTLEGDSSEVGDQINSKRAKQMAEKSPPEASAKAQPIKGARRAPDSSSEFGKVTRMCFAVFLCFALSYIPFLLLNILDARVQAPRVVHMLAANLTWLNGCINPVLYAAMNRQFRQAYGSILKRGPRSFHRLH

Structure (SMILES) | IC50 | inhibition at 10 µM | inhibition at 2 µM
Cc1cc(OCC(=O)N2CC[C@H](C(=O)O)C2)cc(=O)n1[C@H](C)c1ccc(C#CC2CC2)cc1 [Compound I-251] | ≤ 300 nM |  | > 75%
Cc1cc(OCC(=O)NC2CNC2)cc(=O)n1[C@H](C)c1ccc(C#CC2CC2)cc1 [Compound I-69] |  | 25 to 50% | 
Cc1cc(OCS(N)(=O)=O)cc(=O)n1[C@H](C)c1ccc(C#CC2CC2)cc1 [Compound I-48] |  | > 75% | 
Cc1cc(OCC(=O)N2CC(F)(F)C2)cc(=O)n1[C@H](C)c1ccc(C#CC2CC2)cc1 [Compound I-7] | 300 to 1000 nM | > 75% | 
Cc1cc(OCC(=O)N2CC[C@@H](S(=O)(=O)N(C)C)C2)cc(=O)n1[C@H](C)c1ccc(C#CC2CC2)cc1 [Compound I-334] | 300 to 1000 nM |  | > 75%
CNS(=O)(=O)C1CN(C(=O)COc2cc(C)n([C@H](C)c3ccc(C#CC4CC4)cc3)c(=O)c2)C1 [Compound I-323] | ≤ 300 nM |  | > 75%
CNS(=O)(=O)[C@H]1CCN(C(=O)COc2cc(C)n([C@H](C)c3ccc(C#CC4CC4)cc3)c(=O)c2)C1 [Compound I-322] | 300 to 1000 nM |  | > 75%
COCC1CN(C(=O)COc2cc(C)n([C@H](C)c3ccc(C#CC4CC4)cc3)c(=O)c2)C1 [Compound I-292] | ≤ 300 nM |  | > 75%
Cc1cc(OCC(=O)NC2CN(C)C2)cc(=O)n1[C@H](C)c1ccc(C#CC2CC2)cc1 [Compound I-58] |  | 50 to 75% | 
Cc1cc(OCC(=O)N2C[C@@H](O)[C@@H](O)C2)cc(=O)n1[C@H](C)c1ccc(C#CC2CC2)cc1 [Compound I-316] | ≤ 300 nM |  | > 75%
Cc1cc(OCC(=O)N2CCCC2(C)C)cc(=O)n1[C@H](C)c1ccc(C#CC2CC2)cc1 [Compound I-258] | ≤ 300 nM |  | > 75%
Cc1cc(OCc2ncccn2)cc(=O)n1[C@H](C)c1ccc(C#CC2CC2(F)F)cc1 (stereo partly shown) [Compound I-62] |  | 50 to 75% | 
Cc1cc(OCC(=O)N2CCC3(CC2)CN(C)C3)cc(=O)n1[C@H](C)c1ccc(C#CC2CC2)cc1 [Compound I-203] |  | 50 to 75% | 

Continued, values first:

IC50 | inhibition at 10 µM | inhibition at 2 µM | Structure (SMILES)
≤ 300 nM | > 75% |  | Cc1cc(OCC(=O)N(C)C(C)C)cc(=O)n1[C@H](C)c1ccc(C#CC2CC2)cc1 [Compound I-55]
≤ 300 nM |  | > 75% | Cc1nc(OCC(=O)N(C)C)cc(=O)n1[C@H](C)c1ccc(C#CC2CC2)cc1 [Compound I-217]
 | > 75% |  | Cc1cc(OCC(=O)N(C)C)cc(=O)n1[C@H](C)c1ccc(C#CC2(O)CC2)cc1 [Compound I-210]
 | < 25% |  | Cc1cc(OCC(=O)N(C)CC(F)(F)F)cc(=O)n1[C@@H](C)c1ccc(C#CC2CC2)cc1 [Compound I-237]
 | 50 to 75% |  | Cc1cc(OCS(=O)(=O)N(C)C)cc(=O)n1[C@H](C)c1ccc(C#CC2CC2)c(F)c1 [Compound I-37, (R)-1-(1-(1-(4-(cyclopropylethynyl)-3-fluorophenyl)ethyl)-6-methyl-2-oxo-1,2-dihydropyridin-4-yloxy)-N,N-dimethylmethanesulfonamide]
 | < 25% |  | COc1cc(C(C)n2c(C)cc(OCC(=O)N(C)C)cc2=O)ccn1 (stereo not shown) [Compound I-230]
≤ 300 nM |  | > 75% | Cc1cc(OCC(=O)C(C)C)cc(=O)n1[C@H](C)c1ccc(C#CC2CC2)cc1 [Compound I-270]
≤ 300 nM |  | > 75% | Cc1cc(OCC(=O)N(C)C2CCOCC2)cc(=O)n1[C@H](C)c1ccc(C#CC2CC2)cc1 [Compound I-57]
 | > 75% |  | Cc1cc(OCC(=O)N(C)C)cc(=O)n1[C@H](C)c1ccc(C#CC2CC2)c(N(C)C)c1 [Compound I-38]
300 to 1000 nM | 50 to 75% |  | CNS(=O)(=O)COc1cc(C)n([C@H](C)c2ccc(C#CC3CC3)c(F)c2)c(=O)c1 [Compound I-45]
 | 50 to 75% |  | Cc1cc(OCC(=O)N(C)C)cc(=O)n1[C@H](C)c1ccc(C#CC2CC2)cc1Br [Compound I-87]
